According to ChEMBL document CHEMBL6096628, “Discovery of a Highly Potent and Selective BRD9 PROTAC Degrader Based on E3 Binder Investigation for the Treatment of Hematological Tumors” (J Med Chem, 2024):
Activity calls are given as the source filed them. The rule behind the calls is not given here.

Columns and labels:
[1] = molecular target: T1, Protein cereblon/Bromodomain-containing protein 9 (Homo sapiens, UniProt Q9H8M2+Q96SW2); assay: PROTAC activity at CRBN/BRD9 in human MV4-11 cells assessed as induction of BRD9 degradation by Western blot analysis; format: cell-based
MV4-11 [2] = assay: Antiproliferative activity against CRBN knockout human MV4-11 cells assessed as inhibition of cell growth incubated for 7 days by MTS reagent based assay; format: functional; conditions: MV4-11, 168 h
MV4-11 [3] = assay: Induction of apoptosis in human MV4-11 cells assessed as necrotic cells at 0.1 nM incubated for 48 hrs by Annexin V-FITC/PI staining based flow cytometric analysis (reference value: 0.07 %); format: functional
MV4-11 [4] = assay: Downregulation of KHDC4 protein expression in human MV4-11 cells by proteomic analysis; format: functional, cell-based
[5] = molecular target: T1, Protein cereblon/Bromodomain-containing protein 9; assay: PROTAC activity at CRBN/BRD9 in human MV4-11 cells assessed as induction of BRD9 degradation at 0.33 nM in presence of MLN4924 by Western blot analysis; format: cell-based
Target sequence in this assay (Q96SW2 whole entry, looked up): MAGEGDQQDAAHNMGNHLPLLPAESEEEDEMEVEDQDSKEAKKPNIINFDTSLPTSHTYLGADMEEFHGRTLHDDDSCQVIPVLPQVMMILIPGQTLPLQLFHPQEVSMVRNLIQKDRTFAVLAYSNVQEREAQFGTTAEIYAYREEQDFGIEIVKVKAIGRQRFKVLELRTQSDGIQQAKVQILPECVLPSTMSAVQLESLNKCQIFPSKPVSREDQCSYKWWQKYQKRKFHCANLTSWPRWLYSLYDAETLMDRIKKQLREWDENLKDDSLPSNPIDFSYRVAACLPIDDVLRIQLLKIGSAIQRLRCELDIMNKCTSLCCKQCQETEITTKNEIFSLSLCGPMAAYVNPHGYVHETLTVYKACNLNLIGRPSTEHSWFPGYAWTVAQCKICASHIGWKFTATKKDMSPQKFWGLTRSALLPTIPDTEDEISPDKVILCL
Target sequence in this assay (Q9H8M2 whole entry, looked up): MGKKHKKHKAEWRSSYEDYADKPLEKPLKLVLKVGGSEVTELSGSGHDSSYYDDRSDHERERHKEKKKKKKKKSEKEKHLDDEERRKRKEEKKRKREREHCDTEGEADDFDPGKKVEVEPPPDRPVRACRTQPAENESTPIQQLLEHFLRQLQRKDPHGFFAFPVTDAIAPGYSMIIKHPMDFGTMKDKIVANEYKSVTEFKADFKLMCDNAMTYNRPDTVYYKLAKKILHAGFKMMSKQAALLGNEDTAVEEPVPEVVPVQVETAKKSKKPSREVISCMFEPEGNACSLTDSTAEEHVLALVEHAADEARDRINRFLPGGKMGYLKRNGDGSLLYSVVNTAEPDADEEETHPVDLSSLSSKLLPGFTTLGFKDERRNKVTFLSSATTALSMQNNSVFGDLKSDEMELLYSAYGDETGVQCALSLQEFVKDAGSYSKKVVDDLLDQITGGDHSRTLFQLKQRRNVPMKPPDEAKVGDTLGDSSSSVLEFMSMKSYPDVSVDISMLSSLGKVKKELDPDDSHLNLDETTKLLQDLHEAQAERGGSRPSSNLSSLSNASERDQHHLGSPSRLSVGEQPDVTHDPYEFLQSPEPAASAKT

OCI-Ly10 [6] = assay: Antitumor activity against human OCI-Ly10 cells xenografted in Balb/c nude mouse assessed as tumor volume at 30 mg/kg, po administered once daily for 18 days (reference value: 561 +/- 370 mm^3); format: functional; conditions: time 18 day
MV4-11 [7] = assay: Downregulation of beta-catenin mRNA expression level in human MV4-11 cells at 0.1 to 10 nM measured after 24 to 48 hrs by Western blot analysis; format: functional, cell-based; conditions: dose 0.1-10 nM, time 24-48 hrs
MV4-11 [8] = assay: Induction of apoptosis in human MV4-11 cells assessed as viable cells at 0.01 nM incubated for 48 hrs by Annexin V-FITC/PI staining based flow cytometric analysis (reference value: 94.80 %); format: functional; conditions: read-out: Activity
[9] = molecular target: T1, Protein cereblon/Bromodomain-containing protein 9; assay: PROTAC activity at CRBN/BRD9 in human MV4-11 cells assessed as induction of BRD9 degradation at 0.33 nM in presence of N-(1,1-dioxidotetrahydro-2H-thiopyran-4-yl)-5-ethyl-4-oxo-7-(3-(trifluoromethyl)phenyl)-4,5-dihydrothieno[3,2-c]pyridine-2-carboximidamide by Western blot analysis; format: cell-based
Target sequence in this assay (Q96SW2 whole entry, looked up): as the sequence (Q96SW2 whole entry, looked up) above
Target sequence in this assay (Q9H8M2 whole entry, looked up): as the sequence (Q9H8M2 whole entry, looked up) above

MV4-11 [10] = assay: Induction of BRD7 degradation in human MV4-11 cells at 100 nM by Western blot analysis; format: cell-based
[11] = Cytotoxicity against PBMC cells (unknown origin) assessed as inhibition of cell growth at 5000 nM incubated for 7 days by MTS reagent based assay; format: toxicity; conditions: 168 h, 5 µM, time 7 day
MV4-11 [12] = assay: Induction of IKZF1 degradation in human MV4-11 cells at 1 to 100 nM by Western blot analysis; format: cell-based; conditions: dose 1-100 nM
[13] = Toxicity in Balb/c nude mouse xenografted with human MV4-11 cells assessed as behavioral abnormalities at 20 mg/kg, ip administered once a day for 20 days; format: organism-based; conditions: in vivo, 480 h, time 20 day
MOLM-13 = assay: Antiproliferative activity against human MOLM-13 cells assessed as inhibition of cell growth incubated for 7 days by MTS reagent based assay; format: functional; conditions: MOLM-13, 168 h
OCI-Ly10 [14] = assay: Antiproliferative activity against human OCI-Ly10 cells assessed as inhibition of cell growth incubated for 7 days by MTS reagent based assay; format: functional; conditions: OCI-Ly10, 168 h
MV4-11 [15] = assay: Induction of apoptosis in human MV4-11 cells assessed as late apoptotic cells at 10 nM incubated for 48 hrs by Annexin V-FITC/PI staining based flow cytometric analysis (reference value: 0.91 %); format: functional
Mus musculus = assay: Upregulation of BRD4 expression in Balb/c nude mouse tumor xenografted with human MV4-11 cells at 20 mg/kg, ip administered once daily for 20 days by Western blot analysis; format: functional, organism-based; conditions: time 20.0 day
SU-DHL-6 = assay: Antiproliferative activity against human SU-DHL-6 cells assessed as inhibition of cell growth incubated for 7 days by MTS reagent based assay; format: functional; conditions: SU-DHL-6, 168 h
[16] = molecular target: T1, Protein cereblon/Bromodomain-containing protein 9; assay: In vivo PROTAC activity at CRBN/BRD9 in Balb/c nude mouse xenografted with human MV4-11 cells assessed as induction of BRD9 degradation in tumor at 20 mg/kg, ip administered once daily for 20 days by Western blot analysis; format: functional, organism-based; conditions: time 20.0 day
Target sequence in this assay (Q96SW2 whole entry, looked up): as the sequence (Q96SW2 whole entry, looked up) above
Target sequence in this assay (Q9H8M2 whole entry, looked up): as the sequence (Q9H8M2 whole entry, looked up) above

MV4-11 [17] = assay: Induction of apoptosis in human MV4-11 cells assessed as early apoptotic cells at 0.01 nM incubated for 48 hrs by Annexin V-FITC/PI staining based flow cytometric analysis (reference value: 4.22 %); format: functional
[18] = Toxicity in Balb/c nude mouse xenografted with human MV4-11 cells assessed as weight loss at 20 mg/kg, ip administered once a day for 20 days; format: organism-based; conditions: in vivo, 480 h, time 20 day
[19] = AUC (0 to t) in ICR mouse at 20 mg/kg, IG administered via gavage and measured after 24 hrs by LC-MS analysis; format: ADME, organism-based; conditions: in vivo, po
[20] = Toxicity in Balb/c nude mouse xenografted with human OCI-Ly10 cells assessed as mortality at 30 mg/kg, po administered once daily for 18 days; format: organism-based; conditions: in vivo, 432 h, time 18 day
MV4-11 [21] = assay: Induction of apoptosis in human MV4-11 cells assessed as viable cells at 10 nM incubated for 48 hrs by Annexin V-FITC/PI staining based flow cytometric analysis (reference value: 94.80 %); format: functional; conditions: read-out: Activity
MV4-11 [22] = assay: Downregulation of AXIN2 mRNA expression level in human MV4-11 cells at 0.1 to 10 nM measured after 24 to 48 hrs by qPCR analysis; format: functional, cell-based; conditions: dose 0.1-10 nM, time 24-48 hrs
MV4-11 [23] = assay: Induction of apoptosis in human MV4-11 cells assessed as late apoptotic cells at 0.01 nM incubated for 48 hrs by Annexin V-FITC/PI staining based flow cytometric analysis (reference value: 0.91 %); format: functional
MV4-11 [24] = assay: Cell cycle arrest in human MV4-11 cells assessed as accumulation of cells at G1 phase at 0.01 to 10 nM incubated for 24 hrs by PI staining based flow cytometric analysis; format: functional; conditions: dose 0.01-10 nM
MV4-11 [25] = assay: Upregulation of C-myc mRNA expression level in human MV4-11 cells at 0.1 to 10 nM measured after 24 to 48 hrs by qPCR analysis; format: functional, cell-based; conditions: dose 0.1-10 nM, time 24-48 hrs
MV4-11 [26] = assay: Downregulation of CHEK2 protein expression in human MV4-11 cells by proteomic analysis; format: functional, cell-based
MV4-11 [27] = assay: Induction of apoptosis in human MV4-11 cells assessed as necrotic cells at 10 nM incubated for 48 hrs by Annexin V-FITC/PI staining based flow cytometric analysis (reference value: 0.07 %); format: functional
Kasumi 1 = assay: Antiproliferative activity against human Kasumi 1 cells assessed as inhibition of cell growth incubated for 7 days by MTS reagent based assay; format: functional; conditions: Kasumi 1, 168 h
[28] = molecular target: T1, Protein cereblon/Bromodomain-containing protein 9; assay: PROTAC activity at CRBN/BRD9 in human MV4-11 cells assessed as induction of BRD9 degradation at 0.33 nM in presence of MG132 by Western blot analysis; format: cell-based
Target sequence in this assay (Q96SW2 whole entry, looked up): as the sequence (Q96SW2 whole entry, looked up) above
Target sequence in this assay (Q9H8M2 whole entry, looked up): as the sequence (Q9H8M2 whole entry, looked up) above

MV4-11 [29] = assay: Downregulation of AXIN2 expression level in human MV4-11 cells at 0.1 to 10 nM measured after 24 to 48 hrs by Western blot analysis; format: functional, cell-based; conditions: dose 0.1-10 nM, time 24-48 hrs
MV4-11 [30] = assay: Induction of apoptosis in human MV4-11 cells assessed as early apoptotic cells at 1 nM incubated for 48 hrs by Annexin V-FITC/PI staining based flow cytometric analysis (reference value: 4.22 %); format: functional

For `COc1cc(-c2cn(C)c(=O)c3ccccc23)cc(OC)c1CN1CCC(CN2CCC(c3ccc4c5c(cccc35)C(=O)N4C3CCC(=O)NC3=O)CC2)CC1` (stereo not given), the Activity [1] was “Dose-dependent-effect”, the DC50 [1] was 0.016 nM and the IC50 (MV4-11 [2]) was > 5000 nM. The Activity (MV4-11 [3]) was 0.03%, the Activity (MV4-11 [4]) was “Active” and the Activity [5] was “Not active; Compound Functioned Through Ubiquitin-Proteasome System”. The Activity (OCI-Ly10 [6]) was 309 mm3, the Activity (MV4-11 [7]) was “Active” and the viability at 10 pM (MV4-11 [8]) was 92%. The Activity [9] was “inactive”, the Activity (MV4-11 [10]) was “inactive” and the Activity [11] was “Toxic”. The Activity (MV4-11 [12]) was “Active; Moderate Degradation Observed”, the Activity [13] was “Non-toxic” and the IC50 (MOLM-13) was 0.37 nM. For the same molecule, the IC50 (OCI-Ly10 [14]) was 1.04 nM, the Activity (MV4-11 [15]) was 8.01% and the Activity (Mus musculus) was “Active”. For the same molecule, the IC50 (SU-DHL-6) was 375 nM, the Activity [16] was “Active” and the Activity (MV4-11 [17]) was 6.35%. The Activity [18] was “Non-toxic”, the AUC(0-t) at 24 h [19] was 1300 ng·h/mL and the Activity [20] was “Non-toxic”. For the same molecule, the viability at 0.01 µM (MV4-11 [21]) was 74.8%, the Activity (MV4-11 [22]) was “Active” and the Activity (MV4-11 [23]) was 1.63%. For the same molecule, the Activity (MV4-11 [24]) was “Active”, the Activity (MV4-11 [25]) was “Active” and the Activity (MV4-11 [26]) was “Active”. For the same molecule, the Activity (MV4-11 [27]) was 0.21%, the IC50 (Kasumi 1) was 1.13 nM and the Activity [28] was “Not active; Compound Functioned Through Ubiquitin-Proteasome System”. The Activity (MV4-11 [29]) was “Active” and the Activity (MV4-11 [30]) was 13.79%.
